Results on 3 compounds are retold here after US10670605B2, “Cysteine reactive probes and uses thereof” (The Scripps Research Institute, priority 2015, dated 2020).

What all share (assay): Competitive isoTOP-ABPP, cell lysates
What all share (format): binding

The target in assay [1] is GSTP1 C48 (P09211) (Homo sapiens, UniProt P09211). The note with it: for R value (DMSO/fragment): 500 μM; for isoTOP-ABPP reactivity ratio, P09211_C48: 500 μm.
Assay [2] deals with T1, PDIA6 C190 (Q15084) (Homo sapiens, UniProt Q15084).
T1 sequence (Q15084 20-440): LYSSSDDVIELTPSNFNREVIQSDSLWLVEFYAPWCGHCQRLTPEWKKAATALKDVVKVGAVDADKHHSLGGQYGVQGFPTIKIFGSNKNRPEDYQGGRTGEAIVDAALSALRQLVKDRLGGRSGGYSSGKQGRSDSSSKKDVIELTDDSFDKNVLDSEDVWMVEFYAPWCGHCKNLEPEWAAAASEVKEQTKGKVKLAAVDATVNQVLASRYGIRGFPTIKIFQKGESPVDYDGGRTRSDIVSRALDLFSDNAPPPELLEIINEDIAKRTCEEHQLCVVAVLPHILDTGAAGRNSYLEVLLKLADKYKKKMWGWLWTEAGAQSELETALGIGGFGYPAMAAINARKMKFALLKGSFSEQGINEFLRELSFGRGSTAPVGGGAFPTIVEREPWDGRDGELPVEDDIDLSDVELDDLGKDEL
To be noted: for R value (DMSO/fragment): 500 μM; for isoTOP-ABPP reactivity ratio, Q15084_C190: 500 μm.

Assay [3] concerns the target IDH1 C269 (O75874) (Homo sapiens, UniProt O75874). To be noted: for R value (DMSO/fragment): 500 μM; for isoTOP-ABPP reactivity ratio, O75874_C269: 500 μm.
For assay [4], the target named is T2, MGMT C150 (P16455) (Homo sapiens, UniProt P16455).
T2 sequence (P16455 1-207): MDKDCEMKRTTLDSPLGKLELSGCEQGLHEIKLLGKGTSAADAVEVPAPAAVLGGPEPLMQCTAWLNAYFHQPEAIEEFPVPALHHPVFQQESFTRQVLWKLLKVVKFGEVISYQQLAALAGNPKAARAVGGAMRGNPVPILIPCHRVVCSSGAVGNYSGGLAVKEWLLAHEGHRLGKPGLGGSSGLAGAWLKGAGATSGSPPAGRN
To be noted: for isoTOP-ABPP reactivity ratio, P16455_C150: 500 μm, in-vitro_ramos.

Assay [5] has as its target STAT3 C259 (P40763) (Homo sapiens, UniProt P40763). The note with it: for R value (DMSO/fragment): 500 μM; for isoTOP-ABPP reactivity ratio, P40763_C259: 500 μm.
For assay [6], the target named is XPO1 C34 (O14980) (Homo sapiens, UniProt O14980). The note with it: for R value (DMSO/fragment): 500 μM; for isoTOP-ABPP reactivity ratio, O14980_C34: 500 μm.
XPO1 C34 (O14980), sequence (O14980 whole entry, the tested form may be a part): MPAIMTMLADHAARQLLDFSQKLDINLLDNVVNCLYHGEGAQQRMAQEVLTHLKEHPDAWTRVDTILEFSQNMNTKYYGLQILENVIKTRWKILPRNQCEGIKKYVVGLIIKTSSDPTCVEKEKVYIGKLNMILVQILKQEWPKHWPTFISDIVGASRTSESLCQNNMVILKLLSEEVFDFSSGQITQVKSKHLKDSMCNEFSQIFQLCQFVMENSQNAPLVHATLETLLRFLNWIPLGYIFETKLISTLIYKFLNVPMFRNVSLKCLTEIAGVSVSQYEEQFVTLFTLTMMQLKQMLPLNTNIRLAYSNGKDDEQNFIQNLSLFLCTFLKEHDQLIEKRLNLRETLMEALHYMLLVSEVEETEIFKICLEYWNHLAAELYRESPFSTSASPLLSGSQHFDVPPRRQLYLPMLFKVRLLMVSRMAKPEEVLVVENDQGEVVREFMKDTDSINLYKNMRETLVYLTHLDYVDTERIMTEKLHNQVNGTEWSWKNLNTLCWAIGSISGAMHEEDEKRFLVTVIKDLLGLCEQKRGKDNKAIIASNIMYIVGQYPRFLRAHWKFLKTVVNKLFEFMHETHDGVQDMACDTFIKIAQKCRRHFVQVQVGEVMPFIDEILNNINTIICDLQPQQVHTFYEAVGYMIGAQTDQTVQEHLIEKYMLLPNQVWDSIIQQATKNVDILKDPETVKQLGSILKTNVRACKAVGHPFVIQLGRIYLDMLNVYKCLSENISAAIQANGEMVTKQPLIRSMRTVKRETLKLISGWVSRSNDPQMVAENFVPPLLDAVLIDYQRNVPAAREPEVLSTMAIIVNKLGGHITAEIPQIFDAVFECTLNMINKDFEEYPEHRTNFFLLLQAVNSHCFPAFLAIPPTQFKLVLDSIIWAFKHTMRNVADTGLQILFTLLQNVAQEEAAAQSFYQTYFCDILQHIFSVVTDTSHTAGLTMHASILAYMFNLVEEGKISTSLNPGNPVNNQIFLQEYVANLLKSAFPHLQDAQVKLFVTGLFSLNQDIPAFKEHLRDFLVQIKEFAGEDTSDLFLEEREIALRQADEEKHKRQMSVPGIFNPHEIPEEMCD
In assay [7] the target is T3, PCK2 C306 (Q16822) (Homo sapiens, UniProt Q16822).
T3 sequence (Q16822 33-640): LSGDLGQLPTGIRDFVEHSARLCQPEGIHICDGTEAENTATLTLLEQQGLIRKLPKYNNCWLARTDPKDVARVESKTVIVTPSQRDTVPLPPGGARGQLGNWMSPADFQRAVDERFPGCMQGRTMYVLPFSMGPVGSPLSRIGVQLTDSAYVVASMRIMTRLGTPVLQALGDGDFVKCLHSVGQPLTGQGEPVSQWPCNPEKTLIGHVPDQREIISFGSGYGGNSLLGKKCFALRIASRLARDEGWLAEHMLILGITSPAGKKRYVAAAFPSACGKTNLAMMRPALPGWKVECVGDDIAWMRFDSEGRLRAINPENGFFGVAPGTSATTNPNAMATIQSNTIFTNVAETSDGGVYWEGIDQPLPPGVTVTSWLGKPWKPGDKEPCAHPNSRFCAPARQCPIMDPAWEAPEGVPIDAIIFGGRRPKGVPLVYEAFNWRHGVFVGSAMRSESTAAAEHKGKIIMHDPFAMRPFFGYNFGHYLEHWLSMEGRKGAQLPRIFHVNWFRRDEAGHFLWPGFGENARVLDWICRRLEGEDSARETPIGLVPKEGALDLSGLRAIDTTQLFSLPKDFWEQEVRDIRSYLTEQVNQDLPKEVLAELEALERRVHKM
The note with it: for R value (DMSO/fragment): 500 μM; for isoTOP-ABPP reactivity ratio, Q16822_C306: 500 μm.

Assay [8] deals with PRMT1 C109 (Q99873) (Homo sapiens, UniProt Q99873). The note with it: for R value (DMSO/fragment): 500 μM; for isoTOP-ABPP reactivity ratio, Q99873_C109: 500 μm.
PRMT1 C109 (Q99873), sequence (Q99873 whole entry, the tested form may be a part): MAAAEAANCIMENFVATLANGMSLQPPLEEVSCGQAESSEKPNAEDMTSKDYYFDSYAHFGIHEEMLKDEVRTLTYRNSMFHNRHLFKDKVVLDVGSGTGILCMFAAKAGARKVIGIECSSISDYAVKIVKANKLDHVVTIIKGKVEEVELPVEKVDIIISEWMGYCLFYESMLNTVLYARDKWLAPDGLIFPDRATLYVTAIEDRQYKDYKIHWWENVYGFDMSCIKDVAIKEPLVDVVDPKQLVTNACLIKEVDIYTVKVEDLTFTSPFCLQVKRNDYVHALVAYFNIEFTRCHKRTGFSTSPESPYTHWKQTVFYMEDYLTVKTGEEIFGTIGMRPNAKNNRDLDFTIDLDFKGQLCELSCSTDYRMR

IDH1 C269 (O75874), sequence (O75874 whole entry, the tested form may be a part): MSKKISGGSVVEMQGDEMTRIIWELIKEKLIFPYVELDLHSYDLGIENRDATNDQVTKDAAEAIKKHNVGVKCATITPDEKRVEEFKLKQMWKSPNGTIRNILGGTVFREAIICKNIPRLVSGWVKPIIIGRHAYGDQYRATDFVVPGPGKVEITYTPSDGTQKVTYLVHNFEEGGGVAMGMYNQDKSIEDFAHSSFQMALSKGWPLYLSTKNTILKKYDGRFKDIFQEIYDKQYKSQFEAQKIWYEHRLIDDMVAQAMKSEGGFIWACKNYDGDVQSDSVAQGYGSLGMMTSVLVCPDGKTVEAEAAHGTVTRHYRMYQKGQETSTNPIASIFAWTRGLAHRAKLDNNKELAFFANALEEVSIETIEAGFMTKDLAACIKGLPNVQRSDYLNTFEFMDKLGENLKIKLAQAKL
STAT3 C259 (P40763), sequence (P40763 whole entry, the tested form may be a part): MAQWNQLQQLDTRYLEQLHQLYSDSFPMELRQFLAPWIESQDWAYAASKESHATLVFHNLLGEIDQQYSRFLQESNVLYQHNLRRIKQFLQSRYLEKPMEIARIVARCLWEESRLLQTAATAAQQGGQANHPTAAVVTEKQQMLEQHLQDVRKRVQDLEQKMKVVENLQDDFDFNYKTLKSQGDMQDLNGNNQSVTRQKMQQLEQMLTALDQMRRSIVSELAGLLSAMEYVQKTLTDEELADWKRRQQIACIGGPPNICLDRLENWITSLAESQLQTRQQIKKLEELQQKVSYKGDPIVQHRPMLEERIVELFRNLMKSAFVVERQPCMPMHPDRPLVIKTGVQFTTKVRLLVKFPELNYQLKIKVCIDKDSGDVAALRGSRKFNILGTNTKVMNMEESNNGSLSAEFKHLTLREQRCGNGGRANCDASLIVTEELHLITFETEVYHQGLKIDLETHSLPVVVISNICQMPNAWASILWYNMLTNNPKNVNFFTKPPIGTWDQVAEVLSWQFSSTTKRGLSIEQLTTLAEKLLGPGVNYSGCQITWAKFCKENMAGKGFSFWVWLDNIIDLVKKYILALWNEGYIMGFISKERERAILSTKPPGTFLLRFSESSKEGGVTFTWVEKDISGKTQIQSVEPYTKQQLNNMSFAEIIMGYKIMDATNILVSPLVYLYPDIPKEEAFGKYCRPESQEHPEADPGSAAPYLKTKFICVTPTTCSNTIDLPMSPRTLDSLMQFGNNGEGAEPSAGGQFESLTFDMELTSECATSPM
GSTP1 C48 (P09211), sequence (P09211 whole entry, the tested form may be a part): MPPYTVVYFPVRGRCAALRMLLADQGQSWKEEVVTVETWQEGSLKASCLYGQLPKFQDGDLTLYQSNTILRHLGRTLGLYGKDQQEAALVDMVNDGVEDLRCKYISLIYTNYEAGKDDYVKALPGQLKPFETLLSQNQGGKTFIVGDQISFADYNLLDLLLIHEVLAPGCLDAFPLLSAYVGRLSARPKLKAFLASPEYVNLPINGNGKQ

`O=C(CCl)Nc1cc(C(F)(F)F)cc(C(F)(F)F)c1` [compound 3]: the “R value (DMSO/fragment)” value in assay [1] (in vitro, MDA-MB-231) was 2.9; in assay [1] (invitro, ramos) it was 1.7; in assay [2] (in vitro, MDA-MB-231), 19.9; in assay [2] (invitro, ramos), 13.1; in assay [3] (in vitro, MDA-MB-231) it was 20.0; in assay [3] (invitro, ramos), 1.0. The “R value (DMSO/fragment)” value in assay [4] (500 μM, invitro, ramos) is 17.1; in assay [5] (in vitro, MDA-MB-231), 2.5; in assay [5] (invitro, ramos), 2.9; in assay [6] (in vitro, MDA-MB-231), 1.4; in assay [6] (invitro, ramos) it was 1.6; in assay [7] (in vitro, MDA-MB-231), 10.6. Besides, the “R value (DMSO/fragment)” value in assay [7] (invitro, ramos) turned out to be 0.9; in assay [8] (in vitro, MDA-MB-231) it was 1.3; in assay [8] (invitro, ramos), 1.8.

As to `C=CC(=O)Nc1cc(F)c(N2CCN(C(=O)OC(C)(C)C)CC2)c(F)c1` [compound 38], the “isoTOP-ABPP reactivity ratio, P09211_C48” value in assay [1] (in-vitro_ramos_231) turned out to be 1.9. The “isoTOP-ABPP reactivity ratio, Q15084_C190” value in assay [2] (in-vitro_ramos_231) was 1.1. Besides, in assay [3] (in-vitro_ramos_231), the “isoTOP-ABPP reactivity ratio, O75874_C269” value was 0.7. Besides, the “isoTOP-ABPP reactivity ratio, P16455_C150” value in assay [4] was 1.8. Besides, the “isoTOP-ABPP reactivity ratio, P40763_C259” value in assay [5] (in-vitro_ramos) is 1.5. The “isoTOP-ABPP reactivity ratio, O14980_C34” value in assay [6] (in-vitro_ramos) and in assay [6] (in-vitro_ramos_231) was 1.0 throughout. Further, in assay [7] (in-vitro_ramos_231), the “isoTOP-ABPP reactivity ratio, Q16822_C306” value is on record as 1.0. Also, the “isoTOP-ABPP reactivity ratio, Q99873_C109” value in assay [8] (in-vitro_ramos) was 1.4; in assay [8] (in-vitro_ramos_231), 0.9.

As to `C=CC(=O)N(Cc1cccnc1)c1cc(C(F)(F)F)cc(C(F)(F)F)c1` [compound 31], the results for the “isoTOP-ABPP reactivity ratio, P09211_C48” value in assay [1] (in-vitro_ramos) and in assay [1] (in-vitro_ramos_231) were 1.3 and 2.0, respectively. The “isoTOP-ABPP reactivity ratio, Q15084_C190” value is reported as 1.2 in assay [2] (in-vitro_ramos) and 1.3 in assay [2] (in-vitro_ramos_231). For the same compound, the “isoTOP-ABPP reactivity ratio, O75874_C269” value in assay [3] (in-vitro_ramos) amounted to 0.7; in assay [3] (in-vitro_ramos_231), 0.4. Also, the “isoTOP-ABPP reactivity ratio, P16455_C150” value in assay [4] is 2.8. The “isoTOP-ABPP reactivity ratio, P40763_C259” value in assay [5] (in-vitro_ramos_231) amounted to 1.7. Further, the results for the “isoTOP-ABPP reactivity ratio, O14980_C34” value in assay [6] (in-vitro_ramos) and in assay [6] (in-vitro_ramos_231) were 0.8 and 1.0, respectively. Besides, the “isoTOP-ABPP reactivity ratio, Q16822_C306” value in assay [7] (in-vitro_ramos) is on record as 1.2; in assay [7] (in-vitro_ramos_231) it was 1.9. In addition, the “isoTOP-ABPP reactivity ratio, Q99873_C109” value in assay [8] (in-vitro_ramos) worked out at 1.3; in assay [8] (in-vitro_ramos_231), 1.0.
